{"source": "ChEMBL document CHEMBL3108668", "about": "“Antitumor activity of jujuboside B and the underlying mechanism via induction of apoptosis and autophagy” (J Nat Prod, 2014)", "test_system": "HCT-116", "assay": "Induction of apoptosis in human HCT116 cells assessed as early apoptotic cells at 50 uM after 24 hrs by annexin V-FITC/propidium iodide staining-based flow cytometry (reference value: 3.61%)", "type": "functional", "data": [{"smiles": "CC(C)=C[C@H]1C[C@](C)(O)[C@@H]2[C@H]3CC[C@@H]4[C@@]5(C)CC[C@H](O[C@@H]6OC[C@H](O)[C@H](O[C@@H]7O[C@H](CO)[C@@H](O)[C@H](O)[C@H]7O[C@@H]7OC[C@@H](O)[C@H](O)[C@H]7O)[C@H]6O[C@@H]6O[C@@H](C)[C@H](O)[C@@H](O)[C@H]6O)C(C)(C)[C@@H]5CC[C@@]4(C)[C@@]34CO[C@@]2(C4)O1", "values": [{"measurement": "Activity", "result": 6.65, "unit": "%"}]}]}
